These results are taken from US7550451B2, “Progesterone receptor modulators with increased antigonadotropic activity for female birth control and hormone replacement therapy” (Bayer Schering Pharma AG, priority 2002, dated 2009).

The target in one assay is T1, Progesterone receptor (Oryctolagus cuniculus, UniProt P06186).
T1 construct: Uterus cytosol of the estradiol-primed rabbit; from tissue; host or cells: uterus cytosol of estradiol-primed rabbit
T1 sequence (P06186 1-930): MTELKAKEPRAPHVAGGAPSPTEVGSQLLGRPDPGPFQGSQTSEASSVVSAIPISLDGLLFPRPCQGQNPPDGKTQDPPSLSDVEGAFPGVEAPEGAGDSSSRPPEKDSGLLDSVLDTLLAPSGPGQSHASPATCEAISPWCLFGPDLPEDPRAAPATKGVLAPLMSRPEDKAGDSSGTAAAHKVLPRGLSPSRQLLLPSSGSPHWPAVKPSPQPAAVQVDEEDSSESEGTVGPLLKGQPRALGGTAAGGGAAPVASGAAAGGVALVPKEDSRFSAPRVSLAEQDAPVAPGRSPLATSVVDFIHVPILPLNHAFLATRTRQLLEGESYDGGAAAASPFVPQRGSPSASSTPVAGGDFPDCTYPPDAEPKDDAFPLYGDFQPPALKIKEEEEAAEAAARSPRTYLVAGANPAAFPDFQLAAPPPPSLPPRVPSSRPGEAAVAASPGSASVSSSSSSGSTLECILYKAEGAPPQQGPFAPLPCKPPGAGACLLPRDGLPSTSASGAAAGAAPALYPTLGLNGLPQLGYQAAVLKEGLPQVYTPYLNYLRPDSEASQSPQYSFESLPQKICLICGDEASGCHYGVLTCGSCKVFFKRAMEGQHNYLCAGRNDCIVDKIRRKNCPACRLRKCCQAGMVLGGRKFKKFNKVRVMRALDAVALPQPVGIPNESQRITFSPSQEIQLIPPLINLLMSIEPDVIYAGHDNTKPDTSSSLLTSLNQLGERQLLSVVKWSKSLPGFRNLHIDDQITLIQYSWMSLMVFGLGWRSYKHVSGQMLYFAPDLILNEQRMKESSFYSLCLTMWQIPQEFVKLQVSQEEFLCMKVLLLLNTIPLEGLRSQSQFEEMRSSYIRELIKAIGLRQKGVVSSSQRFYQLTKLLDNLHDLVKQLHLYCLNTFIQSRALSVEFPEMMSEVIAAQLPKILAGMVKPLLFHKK
The assay is described as follows: Receptor binding affinity, progesterone receptor (competitive binding, 3H-ORG 2058). As to conditions: Progesterone = 100%; uterus cytosol of estradiol-primed rabbit. On the procedure:
(§1) The receptor binding affinity was determined by competitive binding of a specifically binding ^3H-labeled hormone (tracer) and the compound to be tested on receptors in the cytosol from animal target organs. In this case, receptor saturation and reaction equilibrium were sought.
(§2) The tracers and increasing concentrations of the compound to be tested (competitor) were co-incubated with the receptor-containing cytosol fraction at 0-4° C. over 18 hours. After separation of the unbonded tracer with carbon-dextran suspension, the receptor-bonded tracer portion was measured for each concentration, and the IC50 was determined from the concentration sequence. As a quotient of the IC50 values of the reference substance and the compound to be tested (×100%), the relative molar binding affinity (RBA) was calculated (RBA of the reference substance=100%).
Uterus cytosol of the estradiol-primed rabbit; homogenized in TED buffer (20 mmol of Tris/HCl, pH 7.4; 1 mmol of ethylenediamine tetraacetate, 2 mmol of dithiothreitol) with 250 mmol of saccharose; stored at −30° C. Tracer: ^3H-ORG 2058, 5 nmol; reference substance: progesterone.

The next assay has as its target T2, Glucocorticoid receptor (Rattus norvegicus, UniProt P06536).
T2 construct: Thymus cytosol of the adrenalectomized rat; from tissue; host or cells: thymus cytosol of adrenalectomized rat
T2 sequence (P06536 1-795): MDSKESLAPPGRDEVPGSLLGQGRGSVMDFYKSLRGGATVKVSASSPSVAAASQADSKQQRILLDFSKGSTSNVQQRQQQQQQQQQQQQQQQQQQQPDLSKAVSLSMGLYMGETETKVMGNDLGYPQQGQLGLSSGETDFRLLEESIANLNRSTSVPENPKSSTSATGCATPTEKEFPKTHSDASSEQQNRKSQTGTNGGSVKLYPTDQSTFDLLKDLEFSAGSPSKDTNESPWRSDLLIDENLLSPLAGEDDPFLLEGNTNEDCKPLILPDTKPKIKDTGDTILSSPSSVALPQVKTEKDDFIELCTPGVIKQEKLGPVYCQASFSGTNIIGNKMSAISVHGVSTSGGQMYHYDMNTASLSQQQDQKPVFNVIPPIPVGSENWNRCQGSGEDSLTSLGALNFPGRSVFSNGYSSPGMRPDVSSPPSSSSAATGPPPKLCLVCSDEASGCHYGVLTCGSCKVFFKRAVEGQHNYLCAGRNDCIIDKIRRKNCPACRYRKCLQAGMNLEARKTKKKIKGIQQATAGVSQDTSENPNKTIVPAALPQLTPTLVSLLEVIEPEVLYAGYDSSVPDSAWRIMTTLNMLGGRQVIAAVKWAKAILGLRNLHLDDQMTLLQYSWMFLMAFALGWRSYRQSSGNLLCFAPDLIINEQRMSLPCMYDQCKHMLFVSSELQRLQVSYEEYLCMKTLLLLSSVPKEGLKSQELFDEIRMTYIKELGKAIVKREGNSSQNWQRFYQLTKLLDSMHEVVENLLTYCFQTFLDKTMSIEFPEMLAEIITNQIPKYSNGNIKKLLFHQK
The assay can be described thus: Receptor binding affinity, glucocorticoid receptor (competitive binding, 3H-dexamethasone). The settings on record: Dexamethasone = 100%; thymus cytosol of adrenalectomized rat. On the procedure:
as §1, §2
Thymus cytosol of the adrenalectomized rat, thymi stored at −30° C.; buffer: TED. Tracer: ^3H-Dexamethasone, 20 nmol; reference substance: dexamethasone.

In the next assay the target is T3, Androgen receptor (Rattus norvegicus, UniProt P15207).
T3 construct: Prostate cytosol of the castrated rat; from tissue; host or cells: prostate cytosol of castrated rat
T3 sequence (P15207 1-902): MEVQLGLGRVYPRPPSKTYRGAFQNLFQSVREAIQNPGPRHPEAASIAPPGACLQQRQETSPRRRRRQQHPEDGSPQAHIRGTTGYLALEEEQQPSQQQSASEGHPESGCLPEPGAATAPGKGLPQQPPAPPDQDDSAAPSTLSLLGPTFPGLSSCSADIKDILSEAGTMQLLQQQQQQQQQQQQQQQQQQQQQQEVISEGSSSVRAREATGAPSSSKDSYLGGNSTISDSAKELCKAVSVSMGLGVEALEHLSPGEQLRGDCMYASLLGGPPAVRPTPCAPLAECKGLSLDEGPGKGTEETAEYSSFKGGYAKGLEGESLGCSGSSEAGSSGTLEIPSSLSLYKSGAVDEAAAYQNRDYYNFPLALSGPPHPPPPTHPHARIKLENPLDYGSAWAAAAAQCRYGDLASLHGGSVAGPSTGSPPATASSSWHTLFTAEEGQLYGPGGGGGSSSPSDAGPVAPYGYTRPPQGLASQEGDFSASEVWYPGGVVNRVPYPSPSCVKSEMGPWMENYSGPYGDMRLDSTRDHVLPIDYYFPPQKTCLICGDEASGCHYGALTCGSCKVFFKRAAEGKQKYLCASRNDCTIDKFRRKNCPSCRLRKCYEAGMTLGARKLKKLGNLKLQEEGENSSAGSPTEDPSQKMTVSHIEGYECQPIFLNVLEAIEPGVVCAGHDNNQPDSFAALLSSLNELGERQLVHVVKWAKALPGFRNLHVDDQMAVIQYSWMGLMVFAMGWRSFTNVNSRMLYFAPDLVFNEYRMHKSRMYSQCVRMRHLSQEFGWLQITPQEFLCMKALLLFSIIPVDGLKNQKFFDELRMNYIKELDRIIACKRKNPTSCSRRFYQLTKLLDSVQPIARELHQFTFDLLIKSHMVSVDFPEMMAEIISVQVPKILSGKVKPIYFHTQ
The assay can be described thus: Receptor binding affinity, androgen receptor (competitive binding, 3H-metribolone). The settings on record: prostate cytosol of castrated rat; for AR relative molar binding affinity (RBA) a) against RU 1881: reference RU 1881 (metribolone); for AR relative molar binding affinity (RBA) b) against dihydrotestosterone (DHT): reference dihydrotestosterone. On the procedure:
as §1, §2
Prostate cytosol of the castrated rat; prostates stored at −30° C.; buffer: TED with 10% glycerol as well as 2 μmol of triamcinolone acetonide. Tracer: ^3H-metribolone 4 nmol; reference substances: metribolone (RU 1881) or 5α-dihydrotestosterone.

The test system of another assay is adult female rats. The assay is described as follows: Nidation-inhibiting test (antifertile effects in the perinidation phase). The format is in vivo. As to conditions: day 5-7 of pregnancy, rat. On the procedure: The determination of the progesterone-antagonistic activities was carried out on adult female rats in the nidation-inhibiting test. The principle of the test is described as follows: progesterone preserves pregnancy in all stages. An early-abortive action can accordingly be expected from competitive progesterone antagonists. Female rats (Schoe strain: WIST Tierzucht GmbH Schönwalde) with a weight of 180-200 g were subjected daily to a cycle control and paired up in proestrus. The beginning of pregnancy was determined by detecting sperm in the vaginal smear on the same day (=day 1 of pregnancy=d1 p.c.). From the 5th-7th day of pregnancy, the test substances were injected subcutaneously daily. On the 9th day, vaginal smears were taken, then the animals were autopsied and the uteri were prepared. The degeneration of implants and pathological, hemorrhagic and otherwise abnormal nidation sites were counted as abortions and are shown in Table 2.

On to `CO[C@H]1CC[C@H]2[C@@H]3CCC4=CC(=O)CCC4=C3[C@@H](c3ccc(/C=N/O)cc3)C[C@]12C` [Example 5, 4-(17β-Methoxy-3-oxoestra-4,9-dien-11β-yl)benzaldehyde-1(E)-oxime], for which, on Progesterone receptor, the “PR relative molar binding affinity (RBA)” value amounted to 159%. At Glucocorticoid receptor, the “GR relative molar binding affinity (RBA)” value is recorded as 14%. Moreover, on Androgen receptor, the “AR relative molar binding affinity (RBA) a) against RU 1881” value is “a) 21%” and the “AR relative molar binding affinity (RBA) b) against dihydrotestosterone (DHT)” value (“AR relative molar binding affinity … (DHT)” for short) was “b) 32%”. The “Rate of Animals with Complete Inhibition of Nidation” value with adult female rats (1.0 mg/animal/day s.c.) is on record as 0/4.

With `CC1(O)CCC2C3CCC4=C(Br)C(=O)CCC4=C3C(c3ccc(C=NO)cc3)CC21C` (stereo not drawn) [Example 6, 4-(4′-Bromo-17β-hydroxy-17α-methyl-3-oxoestra-4,9-dien-11β-yl)benzaldehyde-1(E)-oxime], the “PR relative molar binding affinity (RBA)” value at Progesterone receptor amounted to 106%. In addition, the “GR relative molar binding affinity (RBA)” value on Glucocorticoid receptor turned out to be 0.76%. Moreover, on Androgen receptor, the “AR relative molar binding affinity (RBA) a) against RU 1881” value was “a) 14%” and the “AR relative molar binding affinity … (DHT)” value is listed as “b) 22%”. The “Rate of Animals with Complete Inhibition of Nidation” value in the assay on adult female rats (1.0 mg/animal/day s.c.) was 5/5.

As for `CCO[C@H]1CC[C@H]2[C@@H]3CCC4=CC(=O)CCC4=C3[C@@H](c3ccc(/C=N/O)cc3)C[C@]12C` [Example 15, 4-(17β-Ethoxy-3-oxoestra-4,9-dien-11β-yl)benzaldehyde-1(E)-oxime], the “PR relative molar binding affinity (RBA)” value at Progesterone receptor is recorded as 143%. Also, the “GR relative molar binding affinity (RBA)” value at Glucocorticoid receptor is 17%. At Androgen receptor, the “AR relative molar binding affinity (RBA) a) against RU 1881” value is on record as “a) 13%” and the “AR relative molar binding affinity … (DHT)” value is on record as “b) 21%”.

Consider `C[C@]12C[C@H](c3ccc(/C=N/O)cc3)C3=C4CCC(=O)C=C4CC[C@H]3[C@@H]1CC[C@@H]2OC(=O)c1ccccc1` [Example 16], for which, at Progesterone receptor, the “PR relative molar binding affinity (RBA)” value was found to be 8%. Moreover, the “GR relative molar binding affinity (RBA)” value at Glucocorticoid receptor came out at 3%. On Androgen receptor, the “AR relative molar binding affinity (RBA) a) against RU 1881” value is on record as “a) 1.4%” and the “AR relative molar binding affinity … (DHT)” value was “b) 2.2%”.

As to `CC12CC(c3ccc(C=NO)cc3)C3=C4CCC(=O)C=C4CCC3C1CCC2OCc1ccccc1` (stereo not drawn) [Example 17, 4-(17β-Benzyloxy-3-oxoestra-4,9-dien-11β-yl)benzaldehyde-1(E)-oxime], on Progesterone receptor, the “PR relative molar binding affinity (RBA)” value was determined as 31%. For the same compound, the “GR relative molar binding affinity (RBA)” value at Glucocorticoid receptor amounted to 8%. Also, at Androgen receptor, the “AR relative molar binding affinity (RBA) a) against RU 1881” value was “a) 2%” and the “AR relative molar binding affinity … (DHT)” value was “b) 3%”.

On to `CC12CC(c3ccc(C=NO)cc3)C3=C4CCC(=O)C(Br)=C4CCC3C1CCC2O` (stereo not drawn) [Example 19, 4-(4′-Bromo-17β-hydroxy-3-oxoestra-4,9-dien-11β-yl)benzaldehyde-1(E)-oxime], for which, at Progesterone receptor, the “PR relative molar binding affinity (RBA)” value is listed as 51%. For the same compound, the “GR relative molar binding affinity (RBA)” value at Glucocorticoid receptor was 0.5%. Besides, at Androgen receptor, the “AR relative molar binding affinity (RBA) a) against RU 1881” value is “a) 9%” and the “AR relative molar binding affinity … (DHT)” value was “b) 16%”.

As to `CCNC(=O)O/N=C/c1ccc([C@H]2C[C@@]3(C)[C@@H](CC[C@@]3(O)CO)[C@@H]3CCC4=CC(=O)CCC4=C32)cc1` [Example 20, 4-[17β-Hydroxy-17α-hydroxymethyl-3-oxoestra-4,9-dien-11β-yl]benzaldehyde-1-(E)-[O-(ethylamino)-carbonyl]oxime], the “PR relative molar binding affinity (RBA)” value on Progesterone receptor came out at 12%. The “GR relative molar binding affinity (RBA)” value on Glucocorticoid receptor turned out to be 5%. Besides, at Androgen receptor, the “AR relative molar binding affinity (RBA) a) against RU 1881” value is “a) 4%” and the “AR relative molar binding affinity … (DHT)” value is on record as “b) 7%”.

Consider `CC#C[C@]1(O)CC[C@H]2[C@@H]3CCC4=CC(=O)CCC4=C3[C@@H](c3ccc(N(C)C)cc3)C[C@@]21C` [RU 38 486, reference compound], for which the “Rate of Animals with Complete Inhibition of Nidation” value in the assay on adult female rats (0.3 mg/animal/day s.c.) was 0/5; in the assay with adult female rats (1.0 mg/animal/day s.c.), 2/5; with adult female rats (3.0 mg/animal/day s.c.) it was 5/5.
